Reference: US20120028917A1, “Use Of N-(4-((3-(2-Amino-4-Pyrimidinyl)-2-Pyridinyl)Oxy)Phenyl)-4-(4-Methyl-2-Thienyl)-1-Phthalazinamine In The Treatment Of Antimitotic Agent Resistant Cancer” (Amgen Inc., priority 2009, published 2012)

Legend:
Assay in all cases: Antiproliferative assay (ArrayScan VTi)
Assay type in all cases: cell-based
HCT15 = settings: Homo sapiens, HCT-15; HCT15* (Colon), paclitaxel-resistant; 24 h treatment, then 48 h without compound
Procedure: (§1) Tumor cells were seeded in a Packard View 96-well plate in 100 μL of appropriate complete media at a density of 3000 or 5000 cells/well depending on the cell line growth kinetics (broadly defined as slow vs. fast). All dilutions were performed using Biomek FX workstation. The next day cells were treated with AMG 900 (11-point dose range 0.156 to 0.0003 μM) with a final DMSO concentration of 0.12% in media. After 24 hours, the media containing compound was removed and the cells were washed with complete media. The cells were then incubated in 100 μL of fresh complete media (without compound) for 48 hours. After 48 hours, the cells were fixed by adding 100 μL of fixation buffer to 100 μL of complete media. The cells were incubated at room temperature for 10 minutes. The fixation buffer was aspirated and the cells were then permeabilized in 100 μL wash buffer for 30 minutes at room temperature followed by the addition of 100 μL of DNA stain buffer and incubated at room temperature for 30 minutes in the dark. Next, the cells were washed with 100 μL of wash buffer and stored in 100 μL 1×PBS at 4 degrees Celsius until analysis. Cellular data was attained by scanning the 96-well plates on an ArrayScan VTi imaging system (Cellomics). Quantification of individual cell nuclear area and intensity was performed based on Hoechst 33342 DNA dye fluorescence. A threshold on the nuclear area based on the DMSO-treated control well was set to quantify the number of normal size nuclei from nuclear debris and polyploidy cells. This threshold value was applied to enumerate the number of normal nuclei in six image fields/well using a magnification of 10×. The dose-concentration curves and EC50 values were calculated using a 4-parameter equation.

MES-SA Dx5 = settings: Homo sapiens; MES-SA Dx5* (Uterine), paclitaxel-resistant; 24 h treatment, then 48 h without compound
Procedure: as §1

HT29 = settings: Homo sapiens, HT-29; HT29 (Colon); 24 h treatment, then 48 h without compound
Procedure: as §1

A498 = settings: Homo sapiens; A498 (Kidney); 24 h treatment, then 48 h without compound
Procedure: as §1

SW480 = settings: Homo sapiens; SW480 (Colon); 24 h treatment, then 48 h without compound
Procedure: as §1

SK-OV-3 = settings: Homo sapiens; SK-OV-3 (Ovarian); 24 h treatment, then 48 h without compound
Procedure: as §1

MCF7-p53+ = settings: Homo sapiens; MCF7-p53+ (Breast); 24 h treatment, then 48 h without compound
Procedure: as §1

769P = settings: Homo sapiens; 769P* (Kidney), paclitaxel-resistant; 24 h treatment, then 48 h without compound
Procedure: as §1

HOP-62 = settings: Homo sapiens; HOP-62 (Lung); 24 h treatment, then 48 h without compound
Procedure: as §1

T47D = settings: Homo sapiens; T47D (Breast); 24 h treatment, then 48 h without compound
Procedure: as §1

CAL51 = settings: Homo sapiens, CAL-51; CAL51 (Breast); 24 h treatment, then 48 h without compound
Procedure: as §1

MDA-MB-231 = settings: Homo sapiens; MDA-MB-231 (Breast); 24 h treatment, then 48 h without compound
Procedure: as §1

HCT 116_JH_p21−/− = settings: Homo sapiens; HCT 116_JH_p21−/− (Colon); 24 h treatment, then 48 h without compound
Procedure: as §1

SK-MEL-2 = settings: Homo sapiens; SK-MEL-2 (Skin); 24 h treatment, then 48 h without compound
Procedure: as §1

CAKI-1 = settings: Homo sapiens; CAKI-1 (Kidney); 24 h treatment, then 48 h without compound
Procedure: as §1

SW620 = settings: Homo sapiens, SW-620; SW620 (Colon); 24 h treatment, then 48 h without compound
Procedure: as §1

BT549 = settings: Homo sapiens, BT-549; BT549 (Breast); 24 h treatment, then 48 h without compound
Procedure: as §1

NCI-H460 = settings: Homo sapiens; NCI-H460 (Lung); 24 h treatment, then 48 h without compound
Procedure: as §1

HOP-92 = settings: Homo sapiens; HOP-92 (Lung); 24 h treatment, then 48 h without compound
Procedure: as §1

MCF7-p53− = settings: Homo sapiens; MCF7-p53− (Breast); 24 h treatment, then 48 h without compound
Procedure: as §1

SK-HEP-1 = settings: Homo sapiens, SK-HEP1; SK-HEP-1 (Liver); 24 h treatment, then 48 h without compound
Procedure: as §1

HCT 116_JH_p21+/+ = settings: Homo sapiens; HCT 116_JH_p21+/+ (Colon); 24 h treatment, then 48 h without compound
Procedure: as §1

DU145 = settings: Homo sapiens, DU-145; DU145 (Prostate); 24 h treatment, then 48 h without compound
Procedure: as §1

A549 = settings: Homo sapiens; A549 (Lung); 24 h treatment, then 48 h without compound
Procedure: as §1

SNU449 = settings: Homo sapiens, SNU-449; SNU449* (Liver), paclitaxel-resistant; 24 h treatment, then 48 h without compound
Procedure: as §1

Cc1csc(-c2nnc(Nc3ccc(Oc4ncccc4-c4ccnc(N)n4)cc3)c3ccccc23)c1 [AMG 900, N-(4-((3-(2-amino-4-pyrimidinyl)-2-pyridinyl)oxy)phenyl)-4-(4-methyl-2-thienyl)-1-phthalazinamine]
EC50 (HCT15): 2 nM | EC50 (MES-SA Dx5): 1 nM | EC50 (HT29): 5 nM | EC50 (A498): 1 nM | EC50 (SW480): 2 nM | EC50 (SK-OV-3): 2 nM | EC50 (MCF7-p53+): 1 nM | EC50 (769P): 2 nM | EC50 (HOP-62): 2 nM | EC50 (T47D): 5 nM | EC50 (CAL51): 2 nM | EC50 (MDA-MB-231): 2 nM | EC50 (HCT 116_JH_p21−/−): 1 nM | EC50 (SK-MEL-2): 2 nM | EC50 (CAKI-1): 1 nM | EC50 (SW620): 2 nM | EC50 (BT549): 4 nM | EC50 (NCI-H460): 1 nM | EC50 (HOP-92): 2 nM | EC50 (MCF7-p53−): 3 nM | EC50 (SK-HEP-1): 1 nM | EC50 (HCT 116_JH_p21+/+): 1 nM | EC50 (DU145): 2 nM | EC50 (A549): 1 nM | EC50 (SNU449): 2 nM
